# Paper PMC5837957 (European journal of medicinal chemistry, 2018)
# Several values for one entry are separate records, joined by “and”; a condition that tells them apart may be missing. Equal values may be shown once. Entries after “also recorded” stand apart in the source; their conditions may differ. Read-outs that look alike come from different tables or passages of the source. Positions of bridges follow the written chain, without caps; N, C: chain ends. Residues, ends and D or L forms follow the SMILES beside them. *: point of attachment. Stearoyl = CCCCCCCCCCCCCCCCCC(=O)*; Octanoyl = CCCCCCCC(=O)*
# Columns and labels:
# LSD1 bound to CoREST = conditions: read-out: Ki, LSD1 bound to CoREST; cited from earlier work
# recombinant LSD1 = conditions: cited from earlier work
# recombinant LSD1/CoREST = recombinant LSD1/CoREST (Homo sapiens, UniProt O60341); assay: In vitro LSD1 demethylation assay; assay type: biochemical; conditions: Table 3, truncated peptides; inhibitor 500 nM; 0.5 µM
# [1] = tested on: Calu-6 lung cancer cell line; conditions: for % cell death Calu 6: 72-hour treatment, inactive indicates no growth inhibition at a concentration of 100 µM; for IC50: 2 h
# [2] = tested on: K562 myelogenous leukemia cell line; conditions: for % cell death K562: 72-hour treatment
# MCF-7 breast cancer line [3] = conditions: 2 h
# [4] = tested on: H3K4me2 at the promoter of the FEZ1 gene in NCI-H526 cells; assay: ChIP-qPCR of H3K4me2 at FEZ1 promoter; assay type: cell-based; conditions: 100 µM, 48 h
# [5] = tested on: global H3K4me2 in K562 leukemia cells; assay: Western blot of global H3K4me2, K562
# [6] = tested on: global H3K4me2 in Calu6 lung adenocarcinoma cells; assay: Western blot of global H3K4me2, Calu6; conditions: 10 µM, 48-hour exposure
# [7] = tested on: H3K4me2 at the promoter of the IGFBP2 gene in NCI-H526 cells; assay: ChIP-qPCR of H3K4me2 at IGFBP2 promoter; assay type: cell-based; conditions: 100 µM, 48 h
# MCF-7 breast cancer line [8] = conditions: read-out: IC50 (MCF7); cited from earlier work
# [9] = tested on: Calu-6 lung cancer cell line; conditions: read-out: IC50 (Calu-6); cited from earlier work
# MCF-7 breast cancer line [10] = assay: cells; conditions: Homo sapiens, MCF7, 72 h, 72-hour treatment
# [11] = tested on: Calu-6 lung cancer cell line; assay: cells; conditions: Homo sapiens, Calu-6, 72 h, 72-hour treatment
molecule,measurement,setting,value
H-ARTMK^5TARKS^10TGGKAPRKQLA-OH [Compound 8],Ki,LSD1 bound to CoREST,0.05 µM
same,IC50,recombinant LSD1; read-out: IC50 (LSD1),0.051 µM
same,Ki,recombinant LSD1; read-out: Ki (LSD1),0.04 µM
H-ARAM c[K^5TARK^9E^10]TGG-K^14A-NH2 [Compound 22],% inhibition of LSD1 at 500 nM,recombinant LSD1/CoREST,73.4% and 73.43 ± 3.75%
same,% cell death Calu 6,[1],inactive
same,% cell death K562,[2]; 1.0 µM,53 ± 11.3%
same,% cell death K562,[2]; 100 µM,11 ± 3.2%
CCCCCCCCCCCCCCCCCC(=O)NCCCC[C@H](NC(=O)[C@H](C)NC(=O)[C@H](CC(C)C)NC(=O)[C@H](CCC(N)=O)NC(=O)[C@H](CCCCN)NC(=O)[C@H](CCCNC(=N)N)NC(=O)[C@@H]1CCCN1C(=O)[C@H](C)NC(=O)[C@H](CCCCN)NC(=O)CNC(=O)CNC(=O)[C@@H](NC(=O)[C@@H]1CCC(=O)NCCCC[C@H](NC(=O)[C@H](CCSC)NC(=O)[C@@H](NC(=O)[C@H](CCCNC(=N)N)NC(=O)[C@H](C)N)[C@@H](C)O)C(=O)N[C@@H]([C@@H](C)O)C(=O)N[C@@H](C)C(=O)N[C@@H](CCCNC(=N)N)C(=O)N[C@@H](CCCCN)C(=O)N1)[C@@H](C)O)C(N)=O [Compound 25],IC50,[1],< 11 µM
same,IC50,MCF-7 breast cancer line [3],< 5 µM
H-ARAM c[K^5TARK^9E^10]TGG-K^14APRK-NH2 [Compound 21],% cell death K562,[2]; 1.0 µM,59 ± 8.1%
same,% cell death K562,[2]; 100 µM,9.5 ± 6.7%
CCCCCCCC(=O)NCCCC[C@H](NC(=O)[C@H](C)NC(=O)[C@H](CC(C)C)NC(=O)[C@H](CCC(N)=O)NC(=O)[C@H](CCCCN)NC(=O)[C@H](CCCNC(=N)N)NC(=O)[C@@H]1CCCN1C(=O)[C@H](C)NC(=O)[C@H](CCCCN)NC(=O)CNC(=O)CNC(=O)[C@@H](NC(=O)[C@@H]1CCC(=O)NCCCC[C@H](NC(=O)[C@H](CCSC)NC(=O)[C@H](C)NC(=O)[C@H](CCCNC(=N)N)NC(=O)[C@H](C)N)C(=O)N[C@@H]([C@@H](C)O)C(=O)N[C@@H](C)C(=O)N[C@@H](CCCNC(=N)N)C(=O)N[C@@H](CCCCN)C(=O)N1)[C@@H](C)O)C(N)=O [Compound 28] (H-ARAMKTARKETGGKAPRKQLAK(Octanoyl)-NH2; lactam 5-10),H3K4me2 levels at the FEZ1 promoter,[4],greatest increase; also recorded: increases H3K4me2 marks
same,dose dependence of H3K4 methylation,"[5]; 0.1 µM and 1.0 µM, 48 h, preliminary study",modest dose dependent increase
same,IC50,[1],40.2 µM
same,change in global H3K4 methylation compared to control,[6],did not induce any changes
same,H3K4me2 levels at the IGFBP2 promoter,[7],greatest increase; also recorded: increases H3K4me2 marks
same,IC50,MCF-7 breast cancer line [3],28.1 µM
same,IC50,[2]; 2 h,95.1 µM
CCCCCCCC(=O)NCCCC[C@H](NC(=O)[C@H](C)NC(=O)[C@H](CC(C)C)NC(=O)[C@H](CCC(N)=O)NC(=O)[C@H](CCCCN)NC(=O)[C@H](CCCNC(=N)N)NC(=O)[C@@H]1CCCN1C(=O)[C@H](C)NC(=O)[C@H](CCCCN)NC(=O)CNC(=O)CNC(=O)[C@@H](NC(=O)[C@@H]1CCC(=O)NCCCC[C@H](NC(=O)[C@H](CCSC)NC(=O)[C@@H](NC(=O)[C@H](CCCNC(=N)N)NC(=O)[C@H](C)N)[C@@H](C)O)C(=O)N[C@@H]([C@@H](C)O)C(=O)N[C@@H](C)C(=O)N[C@@H](CCCNC(=N)N)C(=O)N[C@@H](CCCCN)C(=O)N1)[C@@H](C)O)C(N)=O [Compound 27],H3K4me2 levels at the FEZ1 promoter,[4],increases H3K4me2 marks
same,increase in global H3K4me2 compared to control,"[5]; 10 µM, 48-hour exposure, normalized to GAPDH",17.6 fold
same,IC50,[1],92.4 µM
same,change in global H3K4 methylation compared to control,[6],did not induce any changes
same,H3K4me2 levels at the IGFBP2 promoter,[7],increases H3K4me2 marks
same,IC50,MCF-7 breast cancer line [3],36.1 µM
H-ARTM-c[K^5TARK^9E^10]TGGK^14APRKQLA-NH2 [Compound 9],IC50,MCF-7 breast cancer line [8],153 µM
same,IC50,[9],158 µM
H-ARAM c[K^5TARK^9E^10] -NH2 [Compound 24],% inhibition of LSD1 at 500 nM,recombinant LSD1/CoREST,59.8% and 59.78 ± 5.71%
same,% cell death Calu 6,[1],inactive
"Cl.Cl.c1ccc([C@@H]2C[C@H]2NC2CCNCC2)cc1 [GSK-LSD1, reference compound]",H3K4me2 levels at the FEZ1 promoter,[4],increases H3K4me2 marks; also recorded: somewhat less effective
same,H3K4me2 levels at the IGFBP2 promoter,[7],increases H3K4me2 marks; also recorded: somewhat less effective
H-ARAM c[K^5TARK^9E^10]TG-NH2 [Compound 23],% inhibition of LSD1 at 500 nM,recombinant LSD1/CoREST,67.3% and 67.31 ± 5.81%
same,% cell death Calu 6,[1],inactive
same,% cell death K562,[2]; 1.0 µM,90 ± 9.4%
same,% cell death K562,[2]; 100 µM,18 ± 3.7%
"N=C(NCCCNCCCCCCCNCCCNC(=N)NC(=N)NCCC(c1ccccc1)c1ccccc1)NC(=N)NCCC(c1ccccc1)c1ccccc1 [Compound 3, verlindamycin]",IC50,"MCF-7 breast cancer line [10]; read-out: IC50 (MCF7), Table 2",5.1 µM
same,IC50,"MCF-7 breast cancer line [10]; read-out: IC50 (MCF7), Table 6",2.5 µM
same,IC50,"[11]; read-out: IC50 (Calu-6), Table 2",6.3 µM
same,IC50,"[11]; read-out: IC50 (Calu-6), Table 6",1.6 µM
CCCCCCCCCCCCCCCCCC(=O)NCCCC[C@H](NC(=O)[C@H](C)NC(=O)[C@H](CC(C)C)NC(=O)[C@H](CCC(N)=O)NC(=O)[C@H](CCCCN)NC(=O)[C@H](CCCNC(=N)N)NC(=O)[C@@H]1CCCN1C(=O)[C@H](C)NC(=O)[C@H](CCCCN)NC(=O)CNC(=O)CNC(=O)[C@@H](NC(=O)[C@@H]1CCC(=O)NCCCC[C@H](NC(=O)[C@H](CCSC)NC(=O)[C@H](C)NC(=O)[C@H](CCCNC(=N)N)NC(=O)[C@H](C)N)C(=O)N[C@@H]([C@@H](C)O)C(=O)N[C@@H](C)C(=O)N[C@@H](CCCNC(=N)N)C(=O)N[C@@H](CCCCN)C(=O)N1)[C@@H](C)O)C(N)=O [Compound 26] (H-ARAMKTARKETGGKAPRKQLAK(Stearoyl)-NH2; lactam 5-10),IC50,[1],< 11 µM
same,IC50,MCF-7 breast cancer line [3],< 5 µM
